Molecular target: T1, GapB (Bacillus cereus, UniProt Q817G8)
T1 construct: gene BC_4583; full gapB gene in pET28a, GapB-His6, E. coli BL21 (DE3), Ni-IMAC and Superdex 200, 42 kDa by SDS-PAGE
Assay: NAD(P)H production at […] nm
Type: biochemical
Details: 20 mM glyceraldehyde-3-phosphate, 50 mM Na2HPO4, 5 mM EDTA, pH 7.5, 37°C, 30 min

T1 sequence (Q817G8 entry or part of it): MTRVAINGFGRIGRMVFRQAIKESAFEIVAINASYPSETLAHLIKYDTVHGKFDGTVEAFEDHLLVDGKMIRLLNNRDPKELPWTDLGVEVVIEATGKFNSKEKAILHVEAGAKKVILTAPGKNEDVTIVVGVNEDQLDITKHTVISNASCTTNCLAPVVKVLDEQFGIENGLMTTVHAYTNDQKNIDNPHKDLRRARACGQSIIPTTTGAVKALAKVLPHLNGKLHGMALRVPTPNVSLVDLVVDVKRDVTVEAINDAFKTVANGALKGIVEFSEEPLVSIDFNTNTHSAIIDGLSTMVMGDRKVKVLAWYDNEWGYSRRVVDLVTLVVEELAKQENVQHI

Row | SMILES | NAD(P)H production at 340 nm (2 mM NADP+) | NAD(P)H production at 340 nm (10 mM NAD+)
1 | NC(=O)c1ccc[n+]([C@@H]2O[C@H](COP(=O)(O)OP(=O)(O)OC[C@H]3O[C@@H](n4cnc5c(N)ncnc54)[C@H](OP(=O)(O)O)[C@@H]3O)[C@@H](O)[C@H]2O)c1 [NADP^+] | GapB protein has enzyme activities with either NAD^+ or NADP^+ as a cofactor | 
2 | NC(=O)c1ccc[n+]([C@@H]2O[C@H](COP(=O)(O)OP(=O)(O)OC[C@H]3O[C@@H](n4cnc5c(N)ncnc54)[C@H](O)[C@@H]3O)[C@@H](O)[C@H]2O)c1 [NAD^+] |  | GapB protein has enzyme activities with either NAD^+ or NADP^+ as a cofactor

— article PMC7750190, “GapB Is Involved in Biofilm Formation Dependent on LrgAB but Not the SinI/R System in Bacillus cereus 0-9” (Frontiers in Microbiology, 2020)
